Results as given in patent publication US12503436B2, “Compounds and compositions for treating conditions associated with STING activity” (NOVARTIS PHARMA AG, priority 2021, dated 2025).

Target: STING (Homo sapiens, UniProt Q86WV6, G230A/H232R/R293Q/R71H)
Test: STING reporter assay in THP1-Dual KO-IFNAR2 cells (2′3′cGAMP stimulation, luciferase reporter)
Assay type: cell-based
Conditions: 15 μM 2′3′cGAMP stimulation, 24 h, read-out: Pharmaron, THP1_IFNAR2 STING 24 h Luci Normalized: GeoMean EC50
Outline: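 THP1-Dual KO-IFNAR2 cells (2×10E6 cells/mL) with compounds at 0.0017-100 μM final, stimulated with 15 μM final 2′3′cGAMP delivered by Lipofectamine 2000; 24 h at 37 °C. Luciferase in supernatant read with QUANTI-Luc Plus; EC50 derived from luminescence.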

Sequence of STING (Q86WV6 whole entry R71H/G230A/H232R/R293Q): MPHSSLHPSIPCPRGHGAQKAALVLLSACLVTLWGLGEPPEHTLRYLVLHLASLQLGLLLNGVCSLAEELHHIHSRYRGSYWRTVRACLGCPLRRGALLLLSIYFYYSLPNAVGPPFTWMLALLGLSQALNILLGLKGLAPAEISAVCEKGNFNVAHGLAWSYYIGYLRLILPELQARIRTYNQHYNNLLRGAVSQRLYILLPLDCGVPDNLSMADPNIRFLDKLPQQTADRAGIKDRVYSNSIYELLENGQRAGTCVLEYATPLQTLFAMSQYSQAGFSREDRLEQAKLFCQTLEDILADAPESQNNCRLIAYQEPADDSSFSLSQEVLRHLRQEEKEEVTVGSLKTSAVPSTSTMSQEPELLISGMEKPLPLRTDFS

SMILES	EC50
CC1(C(=O)Nc2c[nH]c3ccc(OCc4ccc(C(F)(F)F)cc4)cc23)CCCO1 (stereo not drawn) [Compound 325, 2-methyl-N-(5-((4-(trifluoromethyl)benzyl)oxy)-1H-indol-3-yl)tetrahydrofuran-2-carboxamide]	200 to 1000 nM
O=C(Nc1c[nH]c2ccc(OCc3ccc(C(F)(F)F)cc3)cc12)C1CC(F)C1 (stereo not drawn) [Compound 326, 3-fluoro-N-(5-((4-(trifluoromethyl)benzyl)oxy)-1H-indol-3-yl)cyclobutane-1-carboxamide]	200 to 1000 nM
CC1(C)CC(C(=O)Nc2c[nH]c3ccc(OCc4ccc(C(F)(F)F)cc4)cc23)C1 [Compound 327, 3,3-dimethyl-N-(5-((4-(trifluoromethyl)benzyl)oxy)-1H-indol-3-yl)cyclobutane-1-carboxamide]	200 to 1000 nM
O=C(Nc1c[nH]c2ccc(OCc3ccc(C(F)(F)F)cc3)cc12)C1CC(O)C1 (stereo not drawn) [Compound 329, 3-hydroxy-N-(5-((4-(trifluoromethyl)benzyl)oxy)-1H-indol-3-yl)cyclobutane-1-carboxamide]	200 to 1000 nM
COCC1(C(=O)Nc2c[nH]c3ccc(O[C@H]4C[C@@H](c5ccc(C(F)(F)F)cc5)C4)cc23)CC1 [Compound 333, 1-(methoxymethyl)-N-(5-(cis-3-(4-(trifluoromethyl)phenyl)cyclobutoxy)-1H-indol-3-yl)cyclopropane-1-carboxamide]	1000 to 5000 nM
C[C@H]1C[C@H](C(=O)Nc2c[nH]c3ccc(O[C@H]4C[C@@H](c5ccc(C(F)(F)F)cc5)C4)cc23)C1 [Compound 334, trans-3-methyl-N-(5-(cis-3-(4-(trifluoromethyl)phenyl)cyclobutoxy)-1H-indol-3-yl)cyclobutane-1-carboxamide]	40 to 200 nM
C[C@H]1C[C@@H](C(=O)Nc2c[nH]c3ccc(O[C@H]4C[C@@H](c5ccc(C(F)(F)F)cc5)C4)cc23)C1 [Compound 335, cis-3-methyl-N-(5-(cis-3-(4-(trifluoromethyl)phenyl)cyclobutoxy)-1H-indol-3-yl)cyclobutane-1-carboxamide]	200 to 1000 nM
O=C(Nc1c[nH]c2ccc(O[C@H]3C[C@@H](c4ccc(C(F)(F)F)cc4)C3)cc12)C1CC(Cl)C1 (stereo partly drawn) [Compound 336, 3-chloro-N-(5-(cis-3-(4-(trifluoromethyl)phenyl)cyclobutoxy)-1H-indol-3-yl)cyclobutane-1-carboxamide]	200 to 1000 nM
O=C(Nc1c[nH]c2ccc(O[C@H]3C[C@@H](c4ccc(C(F)(F)F)cc4)C3)cc12)[C@H]1C[C@@H](O)C1 [Compound 337, cis-3-hydroxy-N-(5-(cis-3-(4-(trifluoromethyl)phenyl)cyclobutoxy)-1H-indol-3-yl)cyclobutane-1-carboxamide]	200 to 1000 nM
O=C(Nc1c[nH]c2ccc(O[C@H]3C[C@@H](c4ccc(C(F)(F)F)cc4)C3)cc12)C1CC(O)C1 (stereo partly drawn) [Compound 338, 3-hydroxy-N-(5-(cis-3-(4-(trifluoromethyl)phenyl)cyclobutoxy)-1H-indol-3-yl)cyclobutane-1-carboxamide]	200 to 1000 nM
C[C@H]1C[C@H](C(=O)Nc2c[nH]c3ccc(OCC[C@@H]4C[C@@H]5CN(CC(F)(F)F)C[C@@H]5C4)cc23)C1 [Compound 341, (1r,3R)-3-methyl-N-(5-(2-((3aR,5r,6aS)-2-(2,2,2-trifluoroethyl)octahydrocyclopenta[c]pyrrol-5-yl)ethoxy)-1H-indol-3-yl)cyclobutane-1-carboxamide]	200 to 1000 nM
CC1(C)CC(C(=O)Nc2c[nH]c3ccc(OCC[C@@H]4C[C@@H]5CN(CC(F)(F)F)C[C@@H]5C4)cc23)C1 [Compound 346, 3,3-dimethyl-N-(5-(2-((3aR,5r,6aS)-2-(2,2,2-trifluoroethyl)octahydrocyclopenta[c]pyrrol-5-yl)ethoxy)-1H-indol-3-yl)cyclobutane-1-carboxamide]	200 to 1000 nM
CC1(C)CC(C(=O)Nc2c[nH]c3ccc(CCOc4ccc(C(F)(F)F)cc4)cc23)C1 [Compound 348, 3,3-dimethyl-N-(5-(2-(4-(trifluoromethyl)phenoxy)ethyl)-1H-indol-3-yl)cyclobutane-1-carboxamide]	200 to 1000 nM
CC(=O)Nc1c[nH]c2ccc(OCCc3cnn4c3CCCC4)cc12 [Compound 349, N-(5-(2-(4,5,6,7-tetrahydropyrazolo[1,5-a]pyridin-3-yl)ethoxy)-1H-indol-3-yl)acetamide]	5000 to 100000 nM
N#CC1CCC1C(=O)Nc1c[nH]c2ccc(OCc3ccc(C(F)(F)F)cc3)cc12 (stereo not drawn) [Compound 351, 2-cyano-N-(5-((4-(trifluoromethyl)benzyl)oxy)-1H-indol-3-yl)cyclobutane-1-carboxamide]	200 to 1000 nM
O=C(Nc1c[nH]c2ccc(O[C@H]3C[C@@H](c4ccc(C(F)(F)F)cc4)C3)cc12)C1(C(F)(F)F)CC1 [Compound 353, 1-(trifluoromethyl)-N-(5-(cis-3-(4-(trifluoromethyl)phenyl)cyclobutoxy)-1H-indol-3-yl)cyclopropane-1-carboxamide]	200 to 1000 nM
CC(C)(C)C(=O)Nc1c[nH]c2ccc(O[C@H]3C[C@@H](c4ccc(C(F)(F)F)cc4)C3)cc12 [Compound 354, N-(5-(cis-3-(4-(trifluoromethyl)phenyl)cyclobutoxy)-1H-indol-3-yl)pivalamide]	200 to 1000 nM
N#CC1CCC1C(=O)Nc1c[nH]c2ccc(O[C@H]3C[C@@H](c4ccc(C(F)(F)F)cc4)C3)cc12 (stereo partly drawn) [Compound 355, 2-cyano-N-(5-(cis-3-(4-(trifluoromethyl)phenyl)cyclobutoxy)-1H-indol-3-yl)cyclobutane-1-carboxamide]	200 to 1000 nM
CC1(F)CC(C(=O)Nc2c[nH]c3ccc(O[C@H]4C[C@@H](c5ccc(C(F)(F)F)cc5)C4)cc23)C1 (stereo partly drawn) [Compound 356, 3-fluoro-3-methyl-N-(5-(cis-3-(4-(trifluoromethyl)phenyl)cyclobutoxy)-1H-indol-3-yl)cyclobutane-1-carboxamide]	200 to 1000 nM
CC1(C(=O)Nc2c[nH]c3ccc(O[C@H]4C[C@@H](c5ccc(C(F)(F)F)cc5)C4)cc23)CCOC1 (stereo partly drawn) [Compound 357, 3-methyl-N-(5-(cis-3-(4-(trifluoromethyl)phenyl)cyclobutoxy)-1H-indol-3-yl)tetrahydrofuran-3-carboxamide]	200 to 1000 nM
CC1(C(=O)Nc2c[nH]c3ccc(O[C@H]4C[C@@H](c5ccc(C(F)(F)F)cc5)C4)cc23)CCCO1 (stereo partly drawn) [Compound 358, 2-methyl-N-(5-(cis-3-(4-(trifluoromethyl)phenyl)cyclobutoxy)-1H-indol-3-yl)tetrahydrofuran-2-carboxamide]	1000 to 5000 nM

Continued, values first:

EC50	SMILES
200 to 1000 nM	C[C@H]1C[C@H](C(=O)Nc2c[nH]c3ccc(OCc4ccc(C(F)(F)F)cc4)cc23)C1 [Compound 320, trans-3-methyl-N-(5-((4-(trifluoromethyl)benzyl)oxy)-1H-indol-3-yl)cyclobutane-1-carboxamide]
200 to 1000 nM	C[C@H]1C[C@@H](C(=O)Nc2c[nH]c3ccc(OCc4ccc(C(F)(F)F)cc4)cc23)C1 [Compound 321, cis-3-methyl-N-(5-((4-(trifluoromethyl)benzyl)oxy)-1H-indol-3-yl)cyclobutane-1-carboxamide]
200 to 1000 nM	O=C(Nc1c[nH]c2ccc(OCc3ccc(C(F)(F)F)cc3)cc12)C1CC(Cl)C1 (stereo not drawn) [Compound 322, 3-chloro-N-(5-((4-(trifluoromethyl)benzyl)oxy)-1H-indol-3-yl)cyclobutane-1-carboxamide]
200 to 1000 nM	CC1(F)CC(C(=O)Nc2c[nH]c3ccc(OCc4ccc(C(F)(F)F)cc4)cc23)C1 (stereo not drawn) [Compound 323, 3-fluoro-3-methyl-N-(5-((4-(trifluoromethyl)benzyl)oxy)-1H-indol-3-yl)cyclobutane-1-carboxamide]
200 to 1000 nM	O=C(Nc1c[nH]c2ccc(OCc3ccc(C(F)(F)F)cc3)cc12)[C@H]1C[C@@H](O)C1 [Compound 324, cis-3-hydroxy-N-(5-((4-(trifluoromethyl)benzyl)oxy)-1H-indol-3-yl)cyclobutane-1-carboxamide]
200 to 1000 nM	CC1(C(=O)Nc2c[nH]c3ccc(OCc4ccc(C(F)(F)F)cc4)cc23)CCOCC1 [Compound 328, 4-methyl-N-(5-((4-(trifluoromethyl)benzyl)oxy)-1H-indol-3-yl)tetrahydro-2H-pyran-4-carboxamide]
200 to 1000 nM	O=C(Nc1c[nH]c2ccc(OCc3ccc(C(F)(F)F)cc3)cc12)C1CC1(F)F (stereo not drawn) [Compound 330, 2,2-difluoro-N-(5-((4-(trifluoromethyl)benzyl)oxy)-1H-indol-3-yl)cyclopropane-1-carboxamide]
1000 to 5000 nM	O=C(Nc1c[nH]c2ccc(OCc3ccc(C(F)(F)F)cc3)cc12)C1(F)CC1 [Compound 331, 1-fluoro-N-(5-((4-(trifluoromethyl)benzyl)oxy)-1H-indol-3-yl)cyclopropane-1-carboxamide]
1000 to 5000 nM	N#C[C@H]1C[C@@H]1C(=O)Nc1c[nH]c2ccc(OCC[C@@H]3C[C@@H]4CN(CC(F)(F)F)C[C@@H]4C3)cc12 [Compound 340, (1S,2S)-2-cyano-N-(5-(2-((3aR,5r,6aS)-2-(2,2,2-trifluoroethyl)octahydrocyclopenta[c]pyrrol-5-yl)ethoxy)-1H-indol-3-yl)cyclopropane-1-carboxamide]
200 to 1000 nM	COC1CC(C(=O)Nc2c[nH]c3ccc(OCC[C@@H]4C[C@@H]5CN(CC(F)(F)F)C[C@@H]5C4)cc23)C1 (stereo partly drawn) [Compound 345, 3-methoxy-N-(5-(2-((3aR,5r,6aS)-2-(2,2,2-trifluoroethyl)octahydrocyclopenta[c]pyrrol-5-yl)ethoxy)-1H-indol-3-yl)cyclobutane-1-carboxamide]
1000 to 5000 nM	CC(=O)Nc1c[nH]c2ccc(OCCc3ccc(C(F)(F)F)cc3)c(Br)c12 [Compound 350, N-(4-bromo-5-(4-(trifluoromethyl)phenethoxy)-1H-indol-3-yl)acetamide]
40 to 200 nM	COC1CC(C(=O)Nc2c[nH]c3ccc(OCc4ccc(C(F)(F)F)cc4)cc23)C1 (stereo not drawn) [Compound 352, 3-methoxy-N-(5-((4-(trifluoromethyl)benzyl)oxy)-1H-indol-3-yl)cyclobutane-1-carboxamide]
